Experimental data published in PubChem BioAssay AID652252 (Sanford-Burnham Center for Chemical Genomics, 2013).
Activity calls are given as the source filed them. No rule for the calls is given here.

tested on: HT1080 cells viability, ATPLite luminescence, overnight; test: HT1080 parental cell cytotoxicity, dose response, cytotoxicity control for MT1-MMP activation inhibitor project, ATPLite luminescence, set 1 (AID 652252)

Question: Which IC50 does the source give for Cc1ccccc1C1=C/C(=C(\SS/C(C(=O)c2ccc(OCC(=O)O)c(Cl)c2Cl)=C2\C=C(c3ccccc3C)SS2)C(=O)c2ccc(OCC(=O)O)c(Cl)c2Cl)SS1 here?
Answer: Its IC50 is 51.8 µM (inactive).

Question: With CCOc1ccc2nc(N=Nc3c(O)[nH]c(=S)[nH]c3=O)sc2c1 as the compound, how does the IC50 read?
Answer: The IC50 was 38.1 µM (inactive).

Question: For CNc1ccccc1C(C)(C)c1cc(-c2cccc(Br)c2)no1, which IC50 is on record?
Answer: Its IC50 is > 80 µM (inactive).

Question: For O=S(=O)(O)c1cc(Cl)cc(N=Nc2ccc(O)cc2O)c1O, which IC50 is on record?
Answer: The IC50 was 1.42 µM.

Question: O=C(NNc1c2ccccc2nc2ccccc12)c1cc2ccccc2cc1O was tested. Which IC50 did it give?
Answer: Its IC50 is > 80 µM (inactive).

Question: For COc1ccc(C)cc1N=Nc1ccc(O)c2ncccc12, which IC50 is on record?
Answer: The IC50 was > 80 µM (inactive).

Question: For CC1=NN(c2ccccc2)C(=O)C1N=Nc1ccc(N)cc1 (configuration not stated), which IC50 is on record?
Answer: The IC50 was > 80 µM (inactive).

Question: How did the IC50 turn out when CC1=NN(c2ccccc2)C(=O)/C1=C/C=C/C=C/N(C)C was run?
Answer: The IC50 was 10.2 µM.

Question: For CCOC(=O)C1=C(C)N=c2s/c(=C\c3ccc(OC(C)=O)c(OCC)c3)c(=O)n2C1/C=C/c1ccccc1 (configuration not stated), which IC50 is on record?
Answer: The IC50 was 3.54 µM.

Question: For CCn1c(=O)c(=O)[nH]c2cc(C(=O)NC3CCCc4ccccc43)ccc21 (configuration not stated), which IC50 is on record?
Answer: Its IC50 is > 80 µM (inactive).

Question: CCN(CC)c1ccc(C(=C2C=CC(=[N+](CC)CC)C=C2)c2ccc(N(CC)CC)cc2)cc1 was tested. Which IC50 did it give?
Answer: The IC50 was > 80 µM (inactive).

Question: With CN1C2=CC=CC=CC2=[N+](C)C12C=CC(=[N+]([O-])[O-])C=C2[N+](=O)[O-] (configuration not stated) as the compound, how does the IC50 read?
Answer: The IC50 was > 80 µM (inactive).

Question: How did the IC50 turn out when Cc1cccc[n+]1CC(=O)/C=C1\N(C)c2ccccc2C1(C)C was run?
Answer: Its IC50 is 70.6 µM (inactive).

Question: With COc1ccc(-c2oc3ccc(-c4ccc(OC)nc4)cc3c2C#CC2(O)CCCCC2)cc1 as the compound, how does the IC50 read?
Answer: The IC50 was > 80 µM (inactive).

Question: How did the IC50 turn out when O=C1c2cccc(NCCCNCCO)c2C(=O)c2cccc(NCCCNCCO)c21 was run?
Answer: Its IC50 is > 80 µM (inactive).

Question: With Nc1ccc(NC(=O)c2ccccc2)c2c1C(=O)c1ccccc1C2=O as the compound, how does the IC50 read?
Answer: Its IC50 is > 80 µM (inactive).

Question: For CCCN1/C(=C2/SC(=S)N(CC)C2=O)C=Cc2ccccc21, which IC50 is on record?
Answer: The IC50 was > 80 µM (inactive).

Question: O=Nc1c(-c2c(O)[nH]c3cc(Br)ccc23)[nH]c2ccccc12 was tested. Which IC50 did it give?
Answer: The IC50 was 66.1 µM (inactive).

Question: C/C(=C/c1oc2ccc(O)cc2c1[N+](=O)[O-])N(C)C was tested. Which IC50 did it give?
Answer: Its IC50 is > 80 µM (inactive).

Question: COc1ccccc1C(=O)NC(=S)/C=C1/N(C)c2ccccc2C1(C)C was tested. Which IC50 did it give?
Answer: Its IC50 is > 80 µM (inactive).

Question: With COc1ccc(Nc2ccccc2N)cc1 as the compound, how does the IC50 read?
Answer: The IC50 was 2.38 µM.

Question: Nc1nc(-c2ccccc2)c(N=Nc2cccc3ccccc23)s1 was tested. Which IC50 did it give?
Answer: The IC50 was > 80 µM (inactive).

Question: CN1C(=O)/C(=C\c2cc(N=Nc3ccccc3)ccc2O)SC1=S was tested. Which IC50 did it give?
Answer: The IC50 was > 80 µM (inactive).

Question: CN(C)c1ccc(C=c2c3ccccc3n3c2c2c([n+]3C)CCCC2)cc1 was tested. Which IC50 did it give?
Answer: The IC50 was > 80 µM (inactive).

Question: How did the IC50 turn out when CC(=O)Oc1ccc2oc(/C=C/N(C)C)c([N+](=O)[O-])c2c1 was run?
Answer: Its IC50 is > 80 µM (inactive).

Question: How did the IC50 turn out when CN=C1C=C/C(=N/N=c2\ccn(O)cc2C)C=C1C was run?
Answer: The IC50 was > 80 µM (inactive).

Question: With COc1ccc(C)cc1Nc1nc(-c2c(C)[nH]c3ccccc23)cs1 as the compound, how does the IC50 read?
Answer: Its IC50 is > 80 µM (inactive).

Question: For Cc1ccc(S(=O)(=O)/N=C2\C=C(NS(=O)(=O)c3ccccc3)C(=O)c3ccccc32)c(C)c1, which IC50 is on record?
Answer: The IC50 was > 80 µM (inactive).

Question: With N#CC(C#N)=NNc1ccc([N+](=O)[O-])cc1 as the compound, how does the IC50 read?
Answer: Its IC50 is > 80 µM (inactive).

Question: How did the IC50 turn out when CC1(C)CCCN(C(=O)c2ccc3c(c2NCCO)C(=O)c2ccccc2C3=O)C1 was run?
Answer: Its IC50 is > 80 µM (inactive).

Question: With CN1C(=O)/C(=C2/C=Cc3ccccc3N2CCCS(=O)(=O)O)SC1=S as the compound, how does the IC50 read?
Answer: Its IC50 is > 80 µM (inactive).

Question: With CCCN1C(=O)/C(=C2/C=Cc3ccccc3N2CC)SC1=S as the compound, how does the IC50 read?
Answer: The IC50 was 64.9 µM (inactive).

Question: CNc1ccc2nc3ccccc3[n+](C)c2c1 was tested. Which IC50 did it give?
Answer: Its IC50 is 11.4 µM.

Question: For CC1=NN(c2ccccc2)C(=O)/C1=C/C=C/c1ccc(N(C)C)cc1, which IC50 is on record?
Answer: The IC50 was > 80 µM (inactive).

Question: Which IC50 does the source give for CCN(CC)c1ccc(/C=C2\C(=O)N(c3nnc(C)c(=O)[nH]3)N=C2C)cc1 here?
Answer: Its IC50 is > 80 µM (inactive).

Question: CC1=C/C(=C(/c2cc(C)c(O)c(Br)c2)c2ccccc2S(=O)(=O)O)C=C(Br)C1=O was tested. Which IC50 did it give?
Answer: Its IC50 is > 80 µM (inactive).

Question: CC1CC(C)CN(C(=O)c2ccc3c(c2NCCO)C(=O)c2ccccc2C3=O)C1 (configuration not stated) was tested. Which IC50 did it give?
Answer: The IC50 was > 80 µM (inactive).

Question: With Nc1nc(-c2ccc(Cl)cc2)c(N=Nc2ccc(S(=O)(=O)N3CCOCC3)cc2)s1 as the compound, how does the IC50 read?
Answer: The IC50 was 30.3 µM (inactive).

Question: With CNc1c(C(=O)O)ccc2c1C(=O)c1ccccc1C2=O as the compound, how does the IC50 read?
Answer: The IC50 was > 80 µM (inactive).

Question: With O=C1c2ccccc2C(=O)c2c(O)c(O)cc(O)c21 as the compound, how does the IC50 read?
Answer: The IC50 was > 80 µM (inactive).

Question: Which IC50 does the source give for Cc1c(C(=O)OCC(=O)NCC2CCCO2)oc2ccccc12 (configuration not stated) here?
Answer: The IC50 was > 40 µM (inactive).

Question: Which IC50 does the source give for CC[n+]1c(/C=C/N(C)c2ccccc2)sc2ccc(Cl)cc21 here?
Answer: The IC50 was > 80 µM (inactive).

Question: With O=C(NNc1c2ccccc2nc2ccccc12)c1ccc(Cl)cc1 as the compound, how does the IC50 read?
Answer: Its IC50 is > 40 µM (inactive).

Question: How did the IC50 turn out when CNc1ccccc1C(C)(C)c1cc(-c2cccc(OC)c2)no1 was run?
Answer: Its IC50 is > 80 µM (inactive).

Question: Cc1cc(N(CCO)CCO)ccc1N=Nc1cc(F)ccc1F was tested. Which IC50 did it give?
Answer: The IC50 was > 80 µM (inactive).

Question: With COc1cc(N(C)C)ccc1C=c1c2ccccc2n2c1cc(-c1ccccc1)[n+]2C as the compound, how does the IC50 read?
Answer: The IC50 was 1.43 µM.

Question: With C[N+]1=C(/C=C/Nc2ccccc2)C(C)(C)c2ccccc21 as the compound, how does the IC50 read?
Answer: Its IC50 is 16.9 µM.
